# Assay results: patent US20220354949A1, “NOVEL COMPOUNDS” (XENIOPRO GmbH, priority 2018, published 2022)
# Legend:
# Format in all cases: cell-based
# [1] = system: HH cells (human cutaneous T-cell lymphoma cells); test: Proliferation assay (alamarBlue) with HH cells
# Source text: (§1) The antiproliferative activities of compounds falling under formula (Ia), (Ib) and (Ic), respectively, were investigated on cells or cell lines originating from a disorder of the haematopoietic system, including the myeloid cell compartment and the lymphoid cell compartment (T-cells and B-cells), the neuroendocrine system, the cervix, the breast, the ovaries, the lung, the gastrointestinal tract, and the mucosal epithelium, as well as from the skin epithelium and from the muscle. To this end, HL-60 cells, NB-4 cells, HH cells, RPMI-8402 cells, TANOUE cells, TT cells, HeLa cells, MDA-MB-231 cells, FU-OV-1 cells, LOU-NH91 cells, 23132/87 cells, CAL-27 cells, BHY cells, SCC-25 cells, A-431 cells, human primary epidermal keratinocytes (HPEK), and C2C12 cells were seeded into 96-well plates suitable for fluorescence assays (CORNING #3598) at following initial cell numbers: 1000 cells per well for HL-60; 1000 cells per well for NB-4; 5000 cells per well for HH; 5000 cells per well for RPMI-8402; 1500 cells per well for TANOUE; 9000 cells per well for TT; 2000 cells per well for HeLa; 3000 cells per well for MDA-MB-231; 3000 cells per well for FU-OV-1; 4000 cells per well for LOU-NH91; 2000 cells per well for 23132/87; 2000 cells per well for CAL-27; 1500 cells per well for BHY; 1500 cells per well for SCC-25; 700 cells per well for A-431; 1000 cells per well for HPEK; 500 cells per well for C2C12. The cells were treated with compounds at indicated final concentrations (diluted from the 1000× stock-solutions in DMSO to a final DMSO concentration of 0.1% v/v in H2O (Water For Injection, WFI, Fisherscientific #10378939)) or with the empty carrier DMSO at 0.1% v/v as control for 5 days. At day 5 after starting the treatments the cells were subjected to the alamarBlue® Proliferation Assay (Bio-Rad Serotec GmbH, BUF012B) according to the protocol of the manufacturer. The readout was taken with a multi-well plate-reader in the fluorescence mode with applying a filter for excitation at 560 nm (band width 10 nm) and for emission at 590 nm (band width 10 nm). Control treatments for growth inhibition with commercial compounds such as Methotrexate (MTREX) and Resveratrol (RES) were included on every plate. Some of the test compounds of the present invention were obtained and applied as their salts. According cases are indicated in the column “Specification” in Table 55 to Table 92 and by their sum formula in Table 93.
# (§2) The assays were performed in duplicate or more replicates of independent single experiments each containing a six-fold replicate for every condition. For every individual plate, the measured fluorescence intensity values of the conditions with compound treatment were normalized against the corresponding equally weighted arithmetic mean of the fluorescence intensity values of the six DMSO treated control wells in order to obtain the relative values to a baseline level of 1.0.
# (§3) Two independent outlier analyses were performed according to the methods by Peirce and Chauvenet (Ross, Journal of Engineering Technology 2003, 1-12). Outliers confirmed by at least one of the methods were excluded from the calculations but not more than one value out of six per compound within a single experiment. The weighted arithmetic mean (here abbreviated as AVEw) for each compound was calculated from the normalized values over all independent replicates of the single experiments comprising the six replicates each. The corresponding standard deviation for the weighted arithmetic mean was calculated according to the method described by Bronstein et al. (Bronstein, Semendjajew, Musiol, Müihlig, Taschenbuch der Mathematik, 5th edition 2001 (German), publisher: Verlag Harri Deutsch, Frankfurt am Main and Thun) and was combined with the Gauß' error propagation associated with the performed calculation for the normalization. The resulting standard deviation is herein referred to as “combined standard deviation”. […]
# [2] = system: RPMI-8402 cells (human T cell acute lymphoblastic leukemia cells); test: Proliferation assay (alamarBlue) with RPMI-8402 cells
# Source text: as §1, §2, §3
# [3] = system: SCC-25 cells (human tongue squamous cell carcinoma cells); test: Proliferation assay (alamarBlue) with SCC-25 cells; settings: for Activity Range (weighted arithmetic mean AVEw of normalized fluorescence intensity, relative to DMSO basis level 1.0): 20 μM; for Activity Range (weighted arithmetic mean of normalized fluorescence intensity, relative to DMSO basis level 1.0): control at 40 μM
# Source text: as §1, §2, §3
# [4] = system: TANOUE cells (human B cell leukemia cells); test: Proliferation assay (alamarBlue) with TANOUE cells
# Source text: as §1, §2, §3
# [5] = system: FU-OV-1 cells (human ovarian carcinoma cells); test: Proliferation assay (alamarBlue) with FU-OV-1 cells
# Source text: as §1, §2, §3
# [6] = system: HL-60 cells (human acute myeloid leukemia cells); test: Proliferation assay (alamarBlue) with HL-60 cells
# Source text: as §1, §2, §3
# [7] = system: BHY cells (human oral squamous cell carcinoma cells); test: Proliferation assay (alamarBlue) with BHY cells; set-up: key: fluorescence relative to mean of DMSO control wells = 1.0; settings: for Activity Range (weighted arithmetic mean AVEw of normalized fluorescence intensity, relative to DMSO basis level 1.0): 20 μM; for Activity Range (weighted arithmetic mean of normalized fluorescence intensity, relative to DMSO basis level 1.0): control at 40 μM
# Source text: as §1, §2, §3
# [8] = system: CAL-27 cells (human tongue squamous cell carcinoma cells); test: Proliferation assay (alamarBlue) with CAL-27 cells; settings: for Activity Range (weighted arithmetic mean AVEw of normalized fluorescence intensity, relative to DMSO basis level 1.0): 20 μM; for Activity Range (weighted arithmetic mean of normalized fluorescence intensity, relative to DMSO basis level 1.0): control at 40 μM
# Source text: as §1, §2, §3
# [9] = system: MDA-MB-231 cells (human breast carcinoma cells); test: Proliferation assay (alamarBlue) with MDA-MB-231 cells; settings: compound at 20 μM
# Source text: as §1, §2, §3
# [10] = system: LOU-NH91 cells (human lung squamous cell carcinoma cells); test: Proliferation assay (alamarBlue) with LOU-NH91 cells; settings: for Activity Range (weighted arithmetic mean AVEw of normalized fluorescence intensity, relative to DMSO basis level 1.0): 20 μM; for Activity Range (weighted arithmetic mean of normalized fluorescence intensity, relative to DMSO basis level 1.0): control at 40 μM
# Source text: as §1, §2, §3
# [11] = system: HeLa cells (human cervical adenocarcinoma cells); test: Proliferation assay (alamarBlue) with HeLa cells
# Source text: as §1, §2, §3
smiles,measurement,setting,value
"Oc1ccc(C=Cc2cc(O)cc(O)c2)cc1 [RES, Resveratrol]","Activity Range: weighted arithmetic mean (AVEw) of normalized fluorescence intensity, proliferation assay with HH cells","[1]; 20 μM, relative to DMSO basis level 1.0, Table 59 (novel compounds)",0.6 ± 0.1
same,"Activity Range: weighted arithmetic mean (AVEw) of normalized fluorescence intensity, proliferation assay with HH cells","[1]; control at 40 μM, relative to DMSO basis level 1.0, Table 59",0.4 ± 0.1
same,"Activity Range: weighted arithmetic mean (AVEw) of normalized fluorescence intensity, proliferation assay with HH cells","[1]; control at 40 μM, relative to DMSO basis level 1.0, Table 60",0.4 ± 0.1
same,"Activity Range: weighted arithmetic mean (AVEw) of normalized fluorescence intensity, proliferation assay with RPMI-8402 cells","[2]; 20 μM, relative to DMSO basis level 1.0, Table 61 (novel compounds)",0.6 ± 0.0
same,"Activity Range: weighted arithmetic mean (AVEw) of normalized fluorescence intensity, proliferation assay with RPMI-8402 cells","[2]; 20 μM, relative to DMSO basis level 1.0, Table 62 (compounds disclosed in PCT/EP2018/054686)",0.6 ± 0.0
same,"Activity Range: weighted arithmetic mean (AVEw) of normalized fluorescence intensity, proliferation assay with RPMI-8402 cells","[2]; control at 40 μM, relative to DMSO basis level 1.0, Table 61",0.1 ± 0.0
same,"Activity Range: weighted arithmetic mean (AVEw) of normalized fluorescence intensity, proliferation assay with RPMI-8402 cells","[2]; control at 40 μM, relative to DMSO basis level 1.0, Table 62",0.1 ± 0.0
same,"Activity Range (weighted arithmetic mean AVEw of normalized fluorescence intensity, relative to DMSO basis level 1.0)",[3]; Table 82 (novel compounds),0.4 ± 0.1
same,"Activity Range (weighted arithmetic mean AVEw of normalized fluorescence intensity, relative to DMSO basis level 1.0)",[3]; Table 83 (compounds disclosed in PCT/EP2018/054686),0.4 ± 0.1
same,"Activity Range (weighted arithmetic mean of normalized fluorescence intensity, relative to DMSO basis level 1.0)",[3]; Table 82,0.1 ± 0.0
same,"Activity Range (weighted arithmetic mean of normalized fluorescence intensity, relative to DMSO basis level 1.0)",[3]; Table 83,0.1 ± 0.0
same,activity at 20 µM,"[4]; Homo sapiens, B-cell, compound at 20 μM, Table 63 (novel compounds), read-out: Activity Range: weighted arithmetic mean (AVEw) of normalized fluorescence intensity relative to DMSO basis level 1.0",10%
same,activity at 40 µM,"[4]; Homo sapiens, B-cell, control at 40 μM, Table 63, read-out: Activity Range: weighted arithmetic mean (AVEw) of normalized fluorescence intensity relative to DMSO basis level 1.0",0%
same,Activity Range: weighted arithmetic mean (AVEw) of normalized fluorescence intensity relative to DMSO basis level 1.0,"[4]; compound at 20 μM, Table 64 (compounds of PCT/EP2018/054686)",0.1 ± 0.0
same,Activity Range: weighted arithmetic mean (AVEw) of normalized fluorescence intensity relative to DMSO basis level 1.0,"[4]; control at 40 μM, Table 64",0.0 ± 0.0
same,Activity Range: weighted arithmetic mean (AVEw) of normalized fluorescence intensity relative to DMSO basis level 1.0,"[5]; compound at 20 μM, Table 71 (novel compounds)",0.7 ± 0.0
same,Activity Range: weighted arithmetic mean (AVEw) of normalized fluorescence intensity relative to DMSO basis level 1.0,"[5]; compound at 20 μM, Table 72 (compounds of PCT/EP2018/054686)",0.7 ± 0.0
same,Activity Range: weighted arithmetic mean (AVEw) of normalized fluorescence intensity relative to DMSO basis level 1.0,"[5]; control at 40 μM, Table 71",0.4 ± 0.0
same,Activity Range: weighted arithmetic mean (AVEw) of normalized fluorescence intensity relative to DMSO basis level 1.0,"[5]; control at 40 μM, Table 72",0.4 ± 0.0
same,"Activity Range: weighted arithmetic mean (AVEw) of normalized fluorescence intensity, proliferation assay with HL-60 cells","[6]; 20 μM, relative to DMSO basis level 1.0, Table 55 (novel compounds)",0.4 ± 0.1
same,"Activity Range: weighted arithmetic mean (AVEw) of normalized fluorescence intensity, proliferation assay with HL-60 cells","[6]; 20 μM, relative to DMSO basis level 1.0, Table 56 (compounds disclosed in PCT/EP2018/054686)",0.4 ± 0.1
same,"Activity Range: weighted arithmetic mean (AVEw) of normalized fluorescence intensity, proliferation assay with HL-60 cells","[6]; control at 40 μM, relative to DMSO basis level 1.0, Table 55",0.2 ± 0.1
same,"Activity Range: weighted arithmetic mean (AVEw) of normalized fluorescence intensity, proliferation assay with HL-60 cells","[6]; control at 40 μM, relative to DMSO basis level 1.0, Table 56",0.2 ± 0.1
same,"Activity Range (weighted arithmetic mean AVEw of normalized fluorescence intensity, relative to DMSO basis level 1.0)",[7]; Table 80 (compounds disclosed in PCT/EP2018/054686),0.5 ± 0.1
same,"Activity Range (weighted arithmetic mean AVEw of normalized fluorescence intensity, relative to DMSO basis level 1.0)",[7]; Table 81 (compounds disclosed in PCT/EP2018/054686),0.5 ± 0.1
same,"Activity Range (weighted arithmetic mean of normalized fluorescence intensity, relative to DMSO basis level 1.0)",[7]; Table 79,0.3 ± 0.0
same,"Activity Range (weighted arithmetic mean of normalized fluorescence intensity, relative to DMSO basis level 1.0)",[7]; Table 80,0.3 ± 0.0
same,"Activity Range (weighted arithmetic mean of normalized fluorescence intensity, relative to DMSO basis level 1.0)",[7]; Table 81,0.3 ± 0.0
same,"Activity Range (weighted arithmetic mean AVEw of normalized fluorescence intensity, relative to DMSO basis level 1.0)",[8]; Table 77 (novel compounds),0.8 ± 0.1
same,"Activity Range (weighted arithmetic mean AVEw of normalized fluorescence intensity, relative to DMSO basis level 1.0)",[8]; Table 78 (compounds disclosed in PCT/EP2018/054686),0.8 ± 0.1
same,"Activity Range (weighted arithmetic mean of normalized fluorescence intensity, relative to DMSO basis level 1.0)",[8]; Table 77,0.4 ± 0.3
same,"Activity Range (weighted arithmetic mean of normalized fluorescence intensity, relative to DMSO basis level 1.0)",[8]; Table 78,0.4 ± 0.3
same,activity at 20 µM,"[9]; Homo sapiens, Table 69 (novel compounds), read-out: Activity Range: weighted arithmetic mean (AVEw) of normalized fluorescence intensity relative to DMSO basis level 1.0",60%
same,Activity Range: weighted arithmetic mean (AVEw) of normalized fluorescence intensity relative to DMSO basis level 1.0,[9]; Table 70 (compounds of PCT/EP2018/054686),0.6 ± 0.0
same,"Activity Range (weighted arithmetic mean AVEw of normalized fluorescence intensity, relative to DMSO basis level 1.0)",[10]; Table 73 (novel compounds),0.9 ± 0.1
same,"Activity Range (weighted arithmetic mean AVEw of normalized fluorescence intensity, relative to DMSO basis level 1.0)",[10]; Table 74 (compounds disclosed in PCT/EP2018/054686),0.9 ± 0.1
same,"Activity Range (weighted arithmetic mean of normalized fluorescence intensity, relative to DMSO basis level 1.0)",[10]; Table 73,0.7 ± 0.0
same,"Activity Range (weighted arithmetic mean of normalized fluorescence intensity, relative to DMSO basis level 1.0)",[10]; Table 74,0.7 ± 0.0
same,Activity Range: weighted arithmetic mean (AVEw) of normalized fluorescence intensity relative to DMSO basis level 1.0,"[11]; compound at 20 μM, Table 67 (novel compounds)",0.9 ± 0.0
same,Activity Range: weighted arithmetic mean (AVEw) of normalized fluorescence intensity relative to DMSO basis level 1.0,"[11]; compound at 20 μM, Table 68 (compounds of PCT/EP2018/054686)",0.9 ± 0.0
same,Activity Range: weighted arithmetic mean (AVEw) of normalized fluorescence intensity relative to DMSO basis level 1.0,"[11]; control at 40 μM, Table 67",0.4 ± 0.1
same,Activity Range: weighted arithmetic mean (AVEw) of normalized fluorescence intensity relative to DMSO basis level 1.0,"[11]; control at 40 μM, Table 68",0.4 ± 0.1
